{"source": "patent US20250121090A1", "about": "“Antibody-Drug Conjugates and Methods of Use Thereof” (priority 2021, published 2025)", "key": {"L-82 xenograft": {"tested_on": "L-82 xenograft", "assay": "L-82 xenograft with CD30 ADCs", "format": "in vivo, NOD/SCID mice", "conditions": "single i.v. dose 3 mg/kg (equal dosing)", "method": "Female NOD/SCID mice were used (8 mice/group) for the study. Animals were inoculated subcutaneously in the flank with 10 million cells in 50% PBS/50% Matrigel. When tumors reached an average volume of 100 mm^3, all animals were treated (Day 0) with a single 10 mg/kg intravenous dose of human IgG. Then, on Day 1, animals were treated with vehicle alone, with unconjugated antibody (3 mg/kg), or with an ADC at 1.5 or 3 mg/kg. The animals were monitored twice weekly for body weight and tumor size. Animals were euthanized when tumors reached 2000 mm^3. ADCs were highly efficacious in this study."}, "Karpas 299 xenograft": {"tested_on": "Karpas 299 xenograft", "assay": "Karpas 299 xenograft study with anti-CD30 ADCs", "conditions": "single i.v. dose 3 mg/kg (equal dosing)"}, "Granta 519 xenograft": {"tested_on": "Granta 519 xenograft", "assay": "First Granta xenograft study", "format": "in vivo", "conditions": "polatuzumab ADCs, single dose on Day 7, equal payload dosing levels", "source_text": "First Granta Xenograft Study Results: Polatuzumab ADCs carrying MMAE conjugated through five different linker types, including vedotin and CT aldehyde-tagged HIPS conjugates were compared for efficacy at equal payload dosing levels in a Granta 519 xenograft study."}, "Male Sprague-Dawley rats": {"tested_on": "Male Sprague-Dawley rats", "assay": "Multi-dose non-GLP rat toxicology study #1", "format": "in vivo", "conditions": "polatuzumab ADCs, DAR ~4, i.v. weekly for 4 doses (days 1, 8, 15, 22), equal payload/equal antibody dosing"}}, "data": [{"substance": "Adcetris: anti-CD30 ADC used as comparator", "values": [{"measurement": "complete responses", "setting": "L-82 xenograft", "value": "8 complete responses out of 8 mice/group"}, {"measurement": "complete responses", "setting": "Karpas 299 xenograft", "value": "6/6"}]}, {"substance": "polatuzumab vedotin", "values": [{"measurement": "efficacy (tumor growth inhibition)", "setting": "Granta 519 xenograft", "value": "longest tumor growth inhibition"}, {"measurement": "tolerability (white and red blood cell parameters)", "setting": "Male Sprague-Dawley rats", "value": "marked myelosuppression"}]}]}
